Structures are written as SMILES. Calls of active or inactive are those of the source. Bounds are passed on as bounds.

These results are taken from ChEMBL document CHEMBL1201862, “PubChem BioAssay data set” (2004).

Experiment [1] addresses Botulinum neurotoxin type F (Clostridium botulinum, UniProt P30996). Nature of the experiment: High-throughput multiplex microsphere dose response for inhibitors of toxin protease, specifically Botulinum neurotoxin light chain F protease, compounds from Cherry Pick 02. The class given is functional. The following applies: read-out: EC50_MICROM.
The target of experiment [2] is T1, Low molecular weight phosphotyrosine protein phosphatase (Homo sapiens, UniProt P24666).
T1 sequence (P24666 whole entry): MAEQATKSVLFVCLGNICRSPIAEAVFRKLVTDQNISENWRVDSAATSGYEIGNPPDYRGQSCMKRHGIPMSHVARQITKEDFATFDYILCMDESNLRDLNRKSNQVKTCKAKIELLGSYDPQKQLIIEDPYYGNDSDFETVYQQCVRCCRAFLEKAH
In kind it is functional. The following applies: read-out: IC50_Mean.

The target in experiment [3] is T1, Low molecular weight phosphotyrosine protein phosphatase. In kind it is functional. The following applies: read-out: IC50_Mean. This is another data set of the same source.
The target in experiment [4] is T2, Sentrin-specific protease 1 (Homo sapiens, UniProt Q9P0U3). As to the kind of experiment: potency of human SENP1 inhibitors, dose response, biochemical, kinetic FRET (AID 651697). In kind it is functional. The following applies: read-out: IC50_Mean.
Experiment [5] addresses T2, Sentrin-specific protease 1. As to the kind of experiment: Dose response confirmation of small molecule inhibitors of the catalytic domain of the SUMO protease, SENP1 in a FRET assay. In kind it is functional. The following applies: read-out: IC50_Mean.
Experiment [6] is described as follows: Luminescence Cell-Based Dose Retest to Confirm Inhibitors of Cancer Stem Cells. [Related pubchem assays (depositor defined):AID2717, AID2721]. The class given is functional. The following applies: Homo sapiens.
For experiment [7], the target named is T3, High affinity choline transporter 1 (Homo sapiens, UniProt Q9GZV3).
T3 sequence (Q9GZV3 whole entry): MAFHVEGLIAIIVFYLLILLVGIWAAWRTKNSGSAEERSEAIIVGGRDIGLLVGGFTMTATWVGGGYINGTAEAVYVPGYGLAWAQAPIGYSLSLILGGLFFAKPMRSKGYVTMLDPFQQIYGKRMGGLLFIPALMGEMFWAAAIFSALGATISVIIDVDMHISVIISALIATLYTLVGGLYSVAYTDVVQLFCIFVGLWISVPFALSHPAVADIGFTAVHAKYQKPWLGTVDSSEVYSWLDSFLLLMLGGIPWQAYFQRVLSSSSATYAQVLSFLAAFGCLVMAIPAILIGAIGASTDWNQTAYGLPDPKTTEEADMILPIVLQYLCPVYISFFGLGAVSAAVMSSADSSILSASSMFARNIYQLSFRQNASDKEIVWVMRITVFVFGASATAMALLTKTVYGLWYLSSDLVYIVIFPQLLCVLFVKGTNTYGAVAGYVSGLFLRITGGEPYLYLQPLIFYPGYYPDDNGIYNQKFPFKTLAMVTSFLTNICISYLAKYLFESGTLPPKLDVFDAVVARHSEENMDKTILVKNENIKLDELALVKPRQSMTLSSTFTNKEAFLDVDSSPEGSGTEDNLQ
Nature of the experiment: CHT inhibitors, dose response, cell-based, 5-point CRC, membrane potential dye (AID 504840). In kind it is functional.

Experiment [8] deals with T3, High affinity choline transporter 1. As to the kind of experiment: CHT inhibitors, dose response, cell-based, 10-point CRC, membrane potential dye (AID 588401).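 Also: membrane potential dye fluorescence of choline-evoked depolarization via CHT.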 In kind it is functional.
Experiment [9] addresses T4, Galanin receptor type 3 (Homo sapiens, UniProt O60755).
T4 sequence (O60755 whole entry): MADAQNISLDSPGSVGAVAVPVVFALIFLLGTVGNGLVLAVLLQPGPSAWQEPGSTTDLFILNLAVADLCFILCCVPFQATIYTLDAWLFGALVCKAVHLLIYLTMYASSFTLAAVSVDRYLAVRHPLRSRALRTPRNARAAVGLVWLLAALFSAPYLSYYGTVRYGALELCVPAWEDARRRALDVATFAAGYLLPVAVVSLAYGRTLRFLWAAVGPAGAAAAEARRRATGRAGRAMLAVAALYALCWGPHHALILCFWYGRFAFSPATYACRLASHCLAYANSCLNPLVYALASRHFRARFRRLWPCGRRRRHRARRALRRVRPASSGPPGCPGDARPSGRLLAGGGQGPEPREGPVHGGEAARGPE
Nature of the experiment: Fluorescence-based cell-based primary high throughput dose response assay to identify antagonists of the Galanin Receptor 3 (GalR3). In kind it is functional.

Experiment [10] in a line: HEK293T cell cytotoxicity, dose response, cytotoxicity control for HIV Vif inhibitor project, cherry-picks (AID 652208). The class given is functional, cell-based.
A short description of experiment [11]: cells. In kind it is functional, cell-based. The following applies: HEK-CNG.
The nature of experiment [12]: LMP1-driven NF-kB reporter inhibition, dose response, cell-based, luciferase reporter, luminescence, dry powder, set 2 (AID 624376). The class given is functional. On the technique in general: A reporter such as luciferase makes a cellular process visible.

T2 sequence (Q9P0U3 whole entry, the tested form may be a part): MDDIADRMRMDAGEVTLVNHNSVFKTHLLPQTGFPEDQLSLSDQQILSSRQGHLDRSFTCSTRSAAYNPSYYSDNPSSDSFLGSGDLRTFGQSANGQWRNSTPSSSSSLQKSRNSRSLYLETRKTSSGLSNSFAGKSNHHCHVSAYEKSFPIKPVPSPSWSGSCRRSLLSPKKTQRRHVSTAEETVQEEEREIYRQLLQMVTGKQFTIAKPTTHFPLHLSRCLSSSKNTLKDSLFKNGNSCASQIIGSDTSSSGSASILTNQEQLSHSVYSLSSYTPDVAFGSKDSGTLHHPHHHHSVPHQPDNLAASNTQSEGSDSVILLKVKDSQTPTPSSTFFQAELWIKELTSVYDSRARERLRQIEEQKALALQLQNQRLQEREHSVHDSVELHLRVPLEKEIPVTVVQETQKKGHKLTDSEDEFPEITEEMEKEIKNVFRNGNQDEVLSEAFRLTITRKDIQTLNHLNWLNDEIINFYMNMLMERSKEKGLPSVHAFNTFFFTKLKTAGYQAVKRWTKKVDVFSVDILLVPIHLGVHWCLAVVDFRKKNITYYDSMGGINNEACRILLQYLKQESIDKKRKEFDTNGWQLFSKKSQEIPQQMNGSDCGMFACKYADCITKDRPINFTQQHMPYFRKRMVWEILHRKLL
Botulinum neurotoxin type F, sequence (P30996 1-436 limits assumed): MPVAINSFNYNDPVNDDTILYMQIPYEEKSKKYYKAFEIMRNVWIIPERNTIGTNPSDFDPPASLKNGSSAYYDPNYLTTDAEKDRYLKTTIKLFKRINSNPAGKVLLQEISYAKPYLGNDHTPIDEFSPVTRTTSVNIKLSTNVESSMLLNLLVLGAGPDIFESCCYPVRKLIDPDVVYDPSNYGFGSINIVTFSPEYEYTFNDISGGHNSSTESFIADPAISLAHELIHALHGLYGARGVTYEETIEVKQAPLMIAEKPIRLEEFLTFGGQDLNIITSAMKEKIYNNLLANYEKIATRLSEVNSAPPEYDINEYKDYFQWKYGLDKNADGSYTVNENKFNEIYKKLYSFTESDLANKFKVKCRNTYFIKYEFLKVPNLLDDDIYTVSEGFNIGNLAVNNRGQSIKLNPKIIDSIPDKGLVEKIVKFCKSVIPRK

For the compound `Cc1ccc(-c2nc3cc(C)c(Br)c(C)n3c2Cc2cccc(Cl)c2)cc1`, the EC50 in experiment [1] was > 20 µM (inactive).
As for `O=C(CCCOc1ccc(Cl)cc1Cl)NNC(=O)c1ccc(NC(=O)c2ccccc2)cc1`, the IC50 in experiment [2] is 11.2 µM (active); in experiment [3], 8.44 µM (active).
For the compound `O=C(O)c1ccc(N/N=C/c2cccc3nccnc23)cc1`, the IC50 is 15.1 µM (active) in experiment [4] and 8.97 µM (active) in experiment [5].
On to `C=CCNc1ncnc2c1ncn2C1OC(CO)C(O)C1O` (configuration not stated), for which the AC50 (as a rule, the concentration giving half of the maximal activity seen) in experiment [6] was 3.33 µM (active); in [10], 22.1 µM (active). For the same compound, the figures for the IC50 in experiment [7], in [8] and in [9] were 9.17 µM (active), 6.31 µM (active) and > 0.369 µM (active), respectively. The EC50 in [11] is 15.8 µM (inactive).
Compound `C[C@@H]1CN([C@@H](C)CO)C(=O)Cc2cc(NC(=O)Cc3ccccc3)ccc2O[C@H]1CN(C)Cc1ccc(C(F)(F)F)cc1` yielded an AbsAC35 in experiment [12] of 115.61 µM.
